From US20240269304A1, “BCL-XL INHIBITOR ANTIBODY-DRUG CONJUGATES AND METHODS OF USE THEREOF” (Novartis AG, priority 2020, published 2024) come the findings set out here.

Read-outs that look alike come from different tables or passages of the source.

For one series, the system named is NCI-H1650. In words: CellTiter Glo 3D spheroid proliferation/survival, 5 days, NCI-H1650, 0.0005-500 nM (Example 10). Type of series: cell-based, human. Particulars: spheroids, 0.0005-500 nM. On the procedure: One target was assessed: EGFR.
The ability of the BCL-xL antibody drug conjugates to inhibit cell proliferation and survival was assessed using the Promega CellTiter-Glo® proliferation assay.
Cell lines were cultured in media that is optimal for their growth at 5% CO2, 37° C. in a tissue culture incubator. Prior to seeding for the proliferation assay, the cells were split at least 2 days before the assay to ensure optimal growth density. […] Cell viability and cell density were determined using a cell counter (Vi-Cell XR Cell Viability Analyzer, Beckman Coulter).
Cells were seeded at a density of 3,000 cells per well in 45 uL of standard growth media. Plates were spun in a centrifuge for 5 minutes and 1,000 RPM. Plates were incubated at 5% CO2, 37° C. for 72 hours in a tissue culture incubator. On the day of dosing, EGFR targeting BCL-xL ADCs were prepared at 1OX in standard growth media. The prepared drug treatments were then added to the cells resulting in final concentrations of 0.0005-500 nM and a final volume of 50 μL per well. Each drug concentration was tested in quadruplets. Plates were incubated at 5% CO2, 37° C. for 5 days in a tissue culture incubator.
Cell viability was assessed through the addition of 40 μL of CellTiter Glo 3D Cell Viability Assay substrate (Promega, cat #G9681), a reagent which lyses cells and measures total adenosine triphosphate (ATP) content. Wells were mixed thoroughly and plates were incubated at room temperature for 30 minutes to stabilize luminescent signals prior to reading using a luminescence reader (EnVision Multilabel Plate Reader, PerkinElmer).
To evaluate the effect of the drug treatments, luminescent counts from wells containing untreated cells (100% viability) were used to normalize treated samples. […] IC50 and Amax values were extrapolated from the resultant curves.
Background: In ATP-based viability assays light output follows the ATP content of the culture.

In series [1] the test system is H1650 human non-small cell lung carcinoma (NSCLC) model. Briefly: In vivo efficacy of EGFR1-Bcl-xL inhibitor ADCs with different linker payloads in combination with docetaxel, H1650 xenografts (Example 16). Also noted: species or system female SCID mice. The following applies: 7.5 mg/kg i.v. once + docetaxel 7.5 mg/kg iv 24 h later. On the procedure: Tumor growth was monitored regularly post cell inoculation and animals were randomized into treatment groups (n=7) with a mean tumor volume of about 150 mm^3. […] The ADCs were administered intravenously (i.v.) once at the start of treatment at 7.5 mg/kg in combination with 7.5 mg/kg docetaxel (Zentiva: 1 ml/20 mg), which was administered i.v. once 24 h after the ADCs. Doses were adjusted to individual mouse body weights.
As a measure of efficacy, the %T/C value was calculated on day 21 according to:
(Δtumor volume treated/Δtumor volume control)*100 Tumor regression was calculated according to: […]
Where Δtumor volumes represent the mean tumor volume on the evaluation day minus the mean tumor volume at the start of the experiment.

A short description of series [2]: ADC stability study: % aggregates by SEC after incubation at 37° C. for 168 h. It is filed as physicochemical. In outline:
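After incubation at 37° C. for 168 h, conjugates run by SEC in isocratic PBS pH 7.4 at 0.45 mL/min for 12 min. Aggregate % is high-molecular-weight peak area at 280 nm over the sum of high-molecular-weight and monomer areas, times 100.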

For another series, the system named is HCC1569 cells. In words: CellTiterGlo (CTG) cell viability, 120 h, HCC1569, single agent or with 10 nM Paclitaxel. Type of series: cell-based. On the procedure:
HCC1569 cells were cultivated in RPMI supplemented with 10% heat inactivated fetal bovine serum, penicillin (100 IU/ml), streptomycin (100 μg/ml) and L-glutamine (2 mM). Cell lines were cultured at 37° C. in a humidified atmosphere containing 5% 002. […] Effects of ADCs on cell viability were assessed after 5 days of incubation at 37° C./5% CO2 by quantification of cellular ATP levels using CellTiterGlo at 75 μL reagent/well. All the conditions were tested in triplicates. Luminescence was quantified on a multipurpose plate reader. IC50s were calculated using standard four-parametric curve fitting.

Another series deals with H1650 cells. Briefly: CellTiterGlo (CTG) cell viability, 3D, 120 h, H1650 (Example 8). It is filed as cell-based, human. Particulars: Homo sapiens, NCI-H1650, H1650 3D.
The mark [3] stands for this setting: experiment n1, read-out: H1650 3D CTG IC50 n1.
Where [4] appears, read: experiment n2, read-out: H1650 3D CTG IC50 n2.
The mark [5] stands for this setting: mean of n1 and n2, read-out: H1650 3D CTG IC50 Mean of n1 and n2.
Setting [6] is: Homo sapiens, HCC1569, read-out: HCC1569 CTG 120 h IC50 nM + Paclitaxel 10 nM Mean N1 and N2, in the presence of 10 nM Paclitaxel, mean.
Setting [7] is: Homo sapiens, HCC1569, read-out: HCC1569 CTG 120 h IC50 nM + Paclitaxel 10 nM N1, in the presence of 10 nM Paclitaxel, N1.
The mark [8] stands for this setting: Homo sapiens, HCC1569, read-out: HCC1569 CTG 120 h IC50 nM + Paclitaxel 10 nM N2, in the presence of 10 nM Paclitaxel, N2.
[9] abbreviates: Homo sapiens, HCC1569, read-out: HCC1569 CTG 120 h IC50 nM Mean N1 and N2, single agent, mean.
[10] abbreviates: Homo sapiens, HCC1569, read-out: HCC1569 CTG 120 h IC50 nM N1, single agent, N1.
Setting [11] is: Homo sapiens, HCC1569, read-out: HCC1569 CTG 120 h IC50 nM N2, single agent, N2.

In general, IC50 refers to the concentration that gives 50% inhibition. On to `Cc1cc(N(CCCC(O)C[N+](C)(C)CCS(=O)(=O)O)c2nc(C(=O)O)c(CCCOc3ccc(C#CCN(C)C(=O)OCc4ccc(NC(=O)[C@H](CCCNC(N)=O)NC(=O)[C@@H](NC(=O)CCOCCN5C(=O)CC(C)C5=O)C(C)C)cc4)cc3F)s2)nnc1Nc1nc2ccccc2s1` (mixture of isomers) [EGFR1-L9C-P4], for which the IC50 in the series with NCI-H1650 is > 500 nM.
Same read-out and setting: the same measure for `Cc1cc(N(CCCC(O)C[N+](C)(C)C)c2nc(C(=O)O)c(CCCOc3ccc(C#CCN(C)C(=O)OCc4ccc(NC(=O)[C@H](CCCNC(N)=O)NC(=O)[C@@H](NC(=O)CCOCCN5C(=O)CC(C)C5=O)C(C)C)cc4)cc3F)s2)nnc1Nc1nc2ccccc2s1` (mixture of isomers) [EGFR1-L9C-P5]: > 500 nM.
Still for that read-out and setting: then `Cc1cc(N(C)c2nc(C(=O)O)c(CCCOc3ccc(C#CC[N+](C)(C)Cc4ccc(NC(=O)[C@H](CCCNC(N)=O)NC(=O)[C@@H](NC(=O)CCOCCN5C(=O)CC(C)C5=O)C(C)C)cc4CN(Cc4cn(CCOCCOCCOCCOCCOCCOCCOCCOCCC(=O)O)nn4)C(=O)OCc4cn(CCOCCOCCOCCOCCOCCOCCOCCOCCC(=O)O)nn4)cc3F)s2)nnc1Nc1nc2ccccc2s1` (mixture of isomers) [EGFR1-L10A-P2], with < 6.17 nM.
Still for that read-out and setting: the same measure for `Cc1c(Cc2nc3ccccc3s2)nnc2c1CCCN2c1nc(C(=O)O)c(CCCOc2ccc(C#CCN(C)C(=O)OCc3ccc(NC(=O)[C@H](CCCNC(N)=O)NC(=O)[C@@H](NC(=O)CCOCCN4C(=O)CC(C)C4=O)C(C)C)cc3CN(Cc3cn(CCOCCOCCOCCOCCOCCOCCOCCOCCC(=O)O)nn3)C(=O)OCc3cn(CCOCCOCCOCCOCCOCCOCCOCCOCCC(=O)O)nn3)cc2F)s1` (mixture of isomers) [EGFR1-L10C-P3]: < 18.5 nM.
For the molecule `Cc1c(Nc2nc3ccccc3s2)nnc2c1CCCN2c1ccc(-c2cnn(CC34CC5(C)CC(C)(C3)CC(OCCN(CC[C@H](O)CO)C(=O)OCc3ccc(NC(=O)[C@H](CCCNC(N)=O)NC(=O)[C@@H](NC(=O)CCOCCN6C(=O)CC(C)C6=O)C(C)C)cc3CN(C)C(=O)CCOCCOCCOCCOCCOCCOCCOCCOCCOCCOCCOCCOCCOCCOCCOCCOCCOCCOCCOCCOCCOCCOCCOCCOCCOCCC(=O)O)(C5)C4)c2C)c(C(=O)O)n1` (mixture of isomers) [EGFR1-L11C-P19], the “Regression (%)” value in series [1] (day 21) is given as −35%. Besides, in series [1] (day 21, mean±SEM), the “ΔTumor volume (mm^3) D21” value was −52 ± 21 mm^3. Further, in series [1] (one way ANOVA post hoc Tukey), the “Statistics 21 vs EGFR-L109A-P1” value is listed as “P < 0.05”, the “Statistics D21 vs Vehicle gp” value is listed as “P < 0.05” and the “Statistics D46 vs EGFR-L109A-P1” value is “P < 0.05”.
For the molecule `CNCCOCCOCCNC(=O)OC[C@@H]1[C@@H]2CCc3nnn(CCOCCOCCOCC(=O)N[C@H](C(=O)N[C@@H](CCCNC(N)=O)C(=O)Nc4ccc(COC(=O)N(C)CC#Cc5ccc(OCCCc6sc(N(C)c7cc(C)c(Nc8nc9ccccc9s8)nn7)nc6C(=O)O)c(F)c5)cc4)C(C)C)c3CC[C@@H]21` [Ab T - L23C-P7], in series [2], the “Stab w1 +37° C. % Agg (by SEC)” value is given as 4%. Moreover, the IC50 in the series on HCC1569 cells (read-out: HCC1569 CTG 120 h IC50 nM + Paclitaxel 10 nM Mean N1 and N2, in the presence of 10 nM Paclitaxel, mean) is 0.213 nM; with HCC1569 cells (read-out: HCC1569 CTG 120 h IC50 nM + Paclitaxel 10 nM N1, in the presence of 10 nM Paclitaxel, N1), 0.287 nM; in the series on HCC1569 cells (read-out: HCC1569 CTG 120 h IC50 nM + Paclitaxel 10 nM N2, in the presence of 10 nM Paclitaxel, N2), 0.139 nM; in the series on HCC1569 cells (read-out: HCC1569 CTG 120 h IC50 nM Mean N1 and N2, single agent, mean), > 300 nM; in the series with HCC1569 cells (read-out: HCC1569 CTG 120 h IC50 nM N1, single agent, N1) it was > 300 nM; in the series on HCC1569 cells (read-out: HCC1569 CTG 120 h IC50 nM N2, single agent, N2) it was > 300 nM.
As to `Cc1cc(N(CCCC(O)C[N+](C)(C)CCCS(=O)(=O)O)c2nc(C(=O)O)c(CCCOc3ccc(C#CCN(C)C(=O)OCc4ccccc4CN(C)C(=O)OCc4cn(CCOCCOCCOCCOCOCCOCCOCCOCCCC(=O)O)nn4)cc3F)s2)nnc1Nc1nc2ccccc2s1` (stereo not shown) [EGFR1-L3C-P4], the IC50 in the series with NCI-H1650 was > 500 nM.
`Cc1c(Nc2nc3ccccc3s2)nnc2c1CCCN2c1ccc(-c2cnn(CC34CC5(C)CC(C)(C3)CC(OCCN(CC[C@H](O)CO)C(=O)OCc3ccc(NC(=O)[C@H](CCCNC(N)=O)NC(=O)[C@@H](NC(=O)CCOCCN6C(=O)C=CC6=O)C(C)C)cc3CN(C)C(=O)CCOCCOCCOCCOCCOCCOCCOCCOCCOCCOCCOCCOCCOCCOCCOCCOCCOCCOCCOCCOCCOCCOCCOCCOCCOCCC(=O)O)(C5)C4)c2C)c(C(=O)O)n1` [L11C-P19]: in the series with NCI-H1650, the “NCI-H1650 IC50 (nM)” value is reported as “among the most potent”.
For `Cc1c(Nc2nc3ccccc3s2)nnc2c1CCCN2c1ccc(-c2cnn(CC34CC5(C)CC(C)(C3)CC(OCCN(CCCO)C(=O)OCc3ccc(NC(=O)[C@H](CCCNC(N)=O)NC(=O)[C@@H](NC(=O)CCOCCN6C(=O)C=CC6=O)C(C)C)cc3CN(C)C(=O)CCOCCOCCOCCOCCOCCOCCOCCOCCOCCOCCOCCOCCOCCOCCOCCOCCOCCOCCOCCOCCOCCOCCOCCOCCOCCC(=O)O)(C5)C4)c2C)c(C(=O)O)n1` [L11C-P25], the “NCI-H1650 IC50 (nM)” value in the series on NCI-H1650 is given as “among the most potent”.
Consider `Cc1cc(N(C)c2nc(C(=O)O)c(CCCOc3ccc(C#CCN(C)C)cc3F)s2)nnc1Nc1nc2ccccc2s1` [P2, 2-[[6-(1,3-benzothiazol-2-ylamino)-5-methyl-pyridazin-3-yl]-methyl-amino]-5-[3-[4-[3-(dimethylamino)prop-1-ynyl]-2-fluoro-phenoxy]propyl]thiazole-4-carboxylic acid], for which the IC50 in the series on H1650 cells (setting [3]) worked out at 1.06 nM; in the series with H1650 cells (setting [4]), 1.9 nM; with H1650 cells (setting [5]), 1.48 nM; with HCC1569 cells (setting [6]), 0.111 nM; in the series on HCC1569 cells (setting [7]) it was 0.126 nM; in the series on HCC1569 cells (setting [8]), 0.096 nM. Also, the IC50 with HCC1569 cells (setting [9]) amounted to 12.4 nM; in the series with HCC1569 cells (setting [10]), 13.1 nM; in the series on HCC1569 cells (setting [11]), 11.7 nM.
Turning to `CNCC#Cc1ccc(OCCCc2sc(N(C)c3cc(C)c(Nc4nc5ccccc5s4)nn3)nc2C(=O)O)c(F)c1` [P7, 2-[[6-(1,3-benzothiazol-2-ylamino)-5-methyl-pyridazin-3-yl]-methyl-amino]-5-[3-[2-fluoro-4-[3-(methylamino)prop-1-ynyl]phenoxy]propyl]thiazole-4-carboxylic acid], the IC50 amounted to 7.5 nM with H1650 cells (setting [3]); 4.7 nM in the series on H1650 cells (setting [4]); 6.1 nM in the series with H1650 cells (setting [5]); 0.436 nM with HCC1569 cells (setting [6]); 0.443 nM in the series on HCC1569 cells (setting [7]); 0.429 nM with HCC1569 cells (setting [8]). Further, the figures for the half-maximal inhibitory concentration (IC50) with HCC1569 cells (setting [9]), in the series with HCC1569 cells (setting [10]) and in the series on HCC1569 cells (setting [11]) were 33 nM, 40.3 nM and 25.6 nM, respectively.
